Measurements reported in patent publication US9878007B2, “Syndecan peptides and polypeptides as inhibitors of vascular endothelial growth factor receptor-2 (VEGFR2) and very late antigen-4 (VLA-4)” (Wisconsin Alumni Research Foundation, priority 2015, dated 2018).
No end group written: not given here.

How the values were obtained:
CAG myeloma cells [1] = test: Cell spreading / attachment assay of CAG myeloma cells on FN or VCAM-1; assay type: cell-based, human; details: 0.3 μM peptide; for induction of HPSE^low cell spreading by S1ED peptides: on VCAM-1
Experimental: Nitrocellulose-coated slides were coated for 2 hr at 37° C. with 40 μg/ml FN (kindly provided by Dr. Donna Peters, University of Wisconsin-Madison) or 5 μg/ml recombinant VCAM-1/Fc chimera (R&D Systems) in calcium and magnesium-free PBS (CMF-PBS; 135 mM NaCl, 2.7 mM KCl, 10.2 mM Na2HPO4-7H20 and 1.75 mM KH2PO4, pH7.4). Slides were blocked for 1 hr at 37° C. with RPMI 1640 containing 1% heat-denatured BSA (plating medium). Cells in plating medium were allowed to attach and spread for 2.5 hr at 37° C. Slides were fixed in 4% EM grade paraformaldehyde (Electron Microscopy Sciences) in CMF-PBS and labeled for 30 min in 0.13 μM rhodamine phalloidin (Invitrogen) in CMF-PBS. Coverslips were mounted in non-fluorescing mounting medium (Immumount; Thermo Shandon) and allowed to dry. All images were acquired with a Nikon Microphot FX microscope using a 20× objective (Nikon; Ex 541-551, DM 580, Barrier 590), Photometric CoolSnap ES camera, and version 7.7.3.0 Metamorph© Imaging software (Molecular Devices). All images represent results from triplicate wells and at least three independent experiments.

HMEC-1 cells [2] = test: Transwell migration / invasion assay of HMEC-1 cells; assay type: cell-based; details: 16 hr
Experimental: FIGS. 8A-H. HPSE mediated the Sdc1-coupled VEGFR2 complex in endothelial cells induces angiogenesis. (FIG. 8A) Lysates from HPSE^low, HPSE^high and HMEC-1 cells are probed by immunoblotting for expression of HPSE. (FIG. 8B) HMEC-1 cells were seeded at equal density and grown in serum-free media for 24 hr in the absence or presence of 125 μg/ml of the HPSE inhibitor SST0001. After 24 hr, conditioned media were harvested, and the level of shed Sdc1 in the conditioned medium from each condition was determined by immunoblotting. (FIG. 8C) HMEC-1 cell lysate was incubated overnight with glutathione beads coated with GST or GST-S1ED. Capture of VLA-4 or VEGFR2 was detected by immunoblotting. (FIG. 8D) HMEC-1 cells were plated on IIICS for 3 hr and double stained for VLA-4 and Sdc1, VEGFR2 and Sdc1, or VLA-4 and VEGFR2. (FIG. 8E) HMEC-1 cells were treated with DMSO, VLA-4 blocking antibody P1H4, β1-integrin blocking antibody mAb13, 10 μg/ml MMP9 blocking antibody, 125 μg/ml HPSE inhibitor SST0001, Vandetanib, VEGFR2 blocking antibody, 30 μM S1ED^210-233 or 30 μM S1ED^214-240 and then plated on IIICS. Images were taken from random field with 200× magnification for counting attached and spread cells. (FIG. 8F) HMEC-1 cells were plated on IIICS in the presence of 10 μM of S1ED^210-236, S1ED^210-233, S1ED^215-240, and S1ED^214-240. Lysates were probed on immunoblots with antibodies against pY^1175 VEGFR2 and VEGFR2. (FIG. 8G) Transwell migration assays towards IIICS (for 16 hr) were performed for HMEC-1 cells in the presence of P1H4, SST0001, Anti-MMP9, Vandetanib, S1ED^210-236, S1ED^210-233, and S1ED^214-240. Images were taken from random field with 200× magnification for counting migrated cells. (FIG. 8H) A 96-well plate coated with 50 μl Matrigel containing 100 μg/ml IIICS per well was solidified at 37° C. for 2 hrs. […]
The bottom chambers of Transwell filter chambers (8 μm pores; Corning) were coated with 40 μg/ml of FN. […] Cells from at least five random fields were counted.

HMEC-1 cells [3] = test: In vitro tube formation assay of HMEC-1 cells on Matrigel; assay type: cell-based; details: 24 hrs, 10 μM peptides
Experimental: FIGS. 8A-H. HPSE mediated the Sdc1-coupled VEGFR2 complex in endothelial cells induces angiogenesis. (FIG. 8A) Lysates from HPSE^low, HPSE^high and HMEC-1 cells are probed by immunoblotting for expression of HPSE. (FIG. 8B) HMEC-1 cells were seeded at equal density and grown in serum-free media for 24 hr in the absence or presence of 125 μg/ml of the HPSE inhibitor SST0001. After 24 hr, conditioned media were harvested, and the level of shed Sdc1 in the conditioned medium from each condition was determined by immunoblotting. (FIG. 8C) HMEC-1 cell lysate was incubated overnight with glutathione beads coated with GST or GST-S1ED. Capture of VLA-4 or VEGFR2 was detected by immunoblotting. (FIG. 8D) HMEC-1 cells were plated on IIICS for 3 hr and double stained for VLA-4 and Sdc1, VEGFR2 and Sdc1, or VLA-4 and VEGFR2. (FIG. 8E) HMEC-1 cells were treated with DMSO, VLA-4 blocking antibody P1H4, β1-integrin blocking antibody mAb13, 10 μg/ml MMP9 blocking antibody, 125 μg/ml HPSE inhibitor SST0001, Vandetanib, VEGFR2 blocking antibody, 30 μM S1ED^210-233 or 30 μM S1ED^214-240 and then plated on IIICS. Images were taken from random field with 200× magnification for counting attached and spread cells. (FIG. 8F) HMEC-1 cells were plated on IIICS in the presence of 10 μM of S1ED^210-236, S1ED^210-233, S1ED^215-240, and S1ED^214-240. Lysates were probed on immunoblots with antibodies against pY^1175 VEGFR2 and VEGFR2. (FIG. 8G) Transwell migration assays towards IIICS (for 16 hr) were performed for HMEC-1 cells in the presence of P1H4, SST0001, Anti-MMP9, Vandetanib, S1ED^210-236, S1ED^210-233, and S1ED^214-240. Images were taken from random field with 200× magnification for counting migrated cells. (FIG. 8H) A 96-well plate coated with 50 μl Matrigel containing 100 μg/ml IIICS per well was solidified at 37° C. for 2 hrs. HMEC-1 cells (2.5×10^4 cells/well) were seeded into the plate and cultured in media containing VEGF, SST0001, 10 μM of S1ED^210-236, S1ED^210-233, S1ED^215-240, and S1ED^214-240 for 24 hrs. Enclosed capillary networks of tubes were taken from random field with 200× magnification.

CAG myeloma cells [4] = test: Cell spreading / attachment assay of CAG myeloma cells on FN or VCAM-1; assay type: cell-based, human; details: on FN, 2 hr; for HPSE^high cell adhesion / HPSE^high cell spreading: 0, 3, 10 and 30 μM peptide; for HPSE^low cell adhesion: high concentrations (30 μM)

Substance	rescue of HPSE^high spreading blocked by MMP9 blocking antibody (CAG myeloma cells [1]; on FN)	rescue of HPSE^high spreading blocked by Vandetanib (CAG myeloma cells [1]; on FN, 1 μM Vandetanib)	induction of HPSE^low cell spreading by S1ED peptides (CAG myeloma cells [1])	invasion of HMEC-1 cells (HMEC-1 cells [2])	tube formation by HMEC-1 cells (HMEC-1 cells [3])	HPSE^low cell spreading (CAG myeloma cells [4]; 0, 0.3, 3, 10 and 30 μM peptide)	HPSE^high cell adhesion (CAG myeloma cells [4])	HPSE^high cell spreading (CAG myeloma cells [4])	HPSE^low cell adhesion (CAG myeloma cells [4])
DFTFETSGENTAVVAVEPDRRNQSPVD [S1ED^210-236]	rescued spreading in the presence of MMP9 inhibitor	fails to rescue spreading blocked by Vandetanib	retains full activity	all block invasion	blocks tube formation	induces HPSE^low cell spreading equal to that observed with S1ED^210-240	induce cell detachment	block cell spreading when added at increasing concentrations	block cell adhesion
S1ED^210-233: syndecan-1 ectodomain peptide, residues 210-233 (SEQ ID NO: 4) (DFTFETSGENTAVVAVEPDRRNQS)	–	–	do not	all block invasion	blocks tube formation	–	induce cell detachment	block cell spreading when added at increasing concentrations	block cell adhesion
